Measurements published in the supplement of paper PMC11061612.

Key:
Assay in all cases: combination Emax (second highest fraction inhibited in the dose matrix, 72 h); higher = more inhibition; extreme values may be limits of the assay
[1] = test system: SW780 (Bladder Carcinoma)
Procedure, shortened: (§1)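 After 24 hours at 37°C and 5% CO2 in 1536-well plates, cells in DMEM/F12 or RPMI plus 10% FBS received two-drug dose matrices for 72 hours. Viability came from CellTiter-Glo 2.0 luminescence and was scaled as inhibition, anchored at 0 by vehicle wells and at 1 by blank wells. Combination Emax is taken as the second-highest inhibition in the matrix, and Bliss excess as the observed combination effect less EA + EB − EA·EB, with EA and EB the single-agent effects.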

[2] = test system: NCI-H1781 (Lung Adenocarcinoma)
Procedure, shortened: as §1

[3] = test system: SW1990 (Pancreatic Carcinoma)
Procedure, shortened: as §1

[4] = test system: SW756 (Cervical Carcinoma)
Procedure, shortened: as §1

[5] = test system: NCI-H1694 (Small Cell Lung Carcinoma)
Procedure, shortened: as §1

[6] = test system: OCI-AML2 (Acute Myeloid Leukemia)
Procedure, shortened: as §1

[7] = test system: KATOIII (Gastric Carcinoma)
Procedure, shortened: as §1

[8] = test system: DB (B-Cell Non-Hodgkin's Lymphoma)
Procedure, shortened: as §1

[9] = test system: CTV-1 (T-Lymphoblastic Leukemia)
Procedure, shortened: as §1

DSH1 (Bladder Carcinoma) = test system: DSH1 (Bladder Carcinoma)
Procedure, shortened: as §1

[10] = test system: DMS-273 (Small Cell Lung Carcinoma)
Procedure, shortened: as §1

SK-N-FI (Neuroblastoma) = test system: SK-N-FI (Neuroblastoma)
Procedure, shortened: as §1

[11] = test system: 697 (B-Lymphoblastic Leukemia)
Procedure, shortened: as §1

[12] = test system: U-266 (Plasma Cell Myeloma)
Procedure, shortened: as §1

NCI-H2595 (Mesothelioma) = test system: NCI-H2595 (Mesothelioma)
Procedure, shortened: as §1

IGR-1 (Melanoma) = test system: IGR-1 (Melanoma)
Procedure, shortened: as §1

RH-1 (Ewing's Sarcoma) = test system: RH-1 (Ewing's Sarcoma)
Procedure, shortened: as §1

[13] = test system: MFH-ino (Other Solid Carcinomas)
Procedure, shortened: as §1

[14] = test system: KARPAS-1106P (B-Cell Non-Hodgkin's Lymphoma)
Procedure, shortened: as §1

[15] = test system: NCI-H1299 (Non-Small Cell Lung Carcinoma)
Procedure, shortened: as §1

| Structure (SMILES) | combination Emax [1] | combination Emax [2] | combination Emax [3] | combination Emax [4] | combination Emax [5] | combination Emax [6] | combination Emax [7] | combination Emax [8] | combination Emax [9] | combination Emax (DSH1 (Bladder Carcinoma)) | combination Emax [10] | combination Emax (SK-N-FI (Neuroblastoma)) | combination Emax [11] | combination Emax [12] | combination Emax (NCI-H2595 (Mesothelioma)) | combination Emax (IGR-1 (Melanoma)) | combination Emax (RH-1 (Ewing's Sarcoma)) | combination Emax [13] | combination Emax [14] | combination Emax [15] |
| --- | --- | --- | --- | --- | --- | --- | --- | --- | --- | --- | --- | --- | --- | --- | --- | --- | --- | --- | --- | --- |
| CN(CCO)CC[C@H](CSc1ccccc1)Nc1ccc(S(=O)(=O)NC(=O)c2ccc(N3CCC([C@@H](O)c4ccccc4-c4ccc(Cl)cc4)CC3)cc2)cc1S(=O)(=O)C(F)(F)F [AZD4320] + C[C@@H]1COCCN1C2=NC(=NC(=C2)C3(CC3)[S@](=N)(=O)C)C4=C5C=CNC5=NC=C4 [AZD6738] (first compound max 1 µM, 7x7, partner max 10 µM) | 0.506 | 0.519 | 0.845 | 0.381 | 0.974 | 1 | 0.474 | 0.959 | 0.822 | 0.94 | 0.813 | 0.765 | 1 | 0.834 | 0.214 | 0.969 | 0.963 | 0.51 | 0.849 |  |
| CN(CCO)CC[C@H](CSc1ccccc1)Nc1ccc(S(=O)(=O)NC(=O)c2ccc(N3CCC([C@@H](O)c4ccccc4-c4ccc(Cl)cc4)CC3)cc2)cc1S(=O)(=O)C(F)(F)F [AZD4320] + C=CCn1c(=O)c2cnc(Nc3ccc(N4CCN(C)CC4)cc3)nc2n1-c1cccc(C(C)(C)O)n1 [AZD1775] (first compound max 1 µM, partner max 1 µM) | 0.457 | 0.563 | 0.757 | 0.399 | 0.906 | 1 | 0.206 | 1 |  | 0.799 | 0.708 | 0.629 | 1 | 0.95 | 0.141 | 0.934 | 0.986 | 0.237 | 0.963 | 0.88 |
| Cc1c2c(nn1C)CSCc1cc(n(C)n1)CSc1cc(c3ccccc3c1)OCCCc1c(C(=O)O)n(C)c3c-2c(Cl)ccc13 [AZD5991] + C[C@@H]1COCCN1C2=NC(=NC(=C2)C3(CC3)[S@](=N)(=O)C)C4=C5C=CNC5=NC=C4 [AZD6738] (first compound max 1 µM, 7x7, partner max 10 µM) | 0.255 | 0.752 | 0.491 | 0.283 | 1 | 1 | 0.373 | 0.999 | 0.781 | 0.919 | 0.98 | 0.815 | 1 | 0.95 | 0.299 | 0.852 | 0.956 | 0.524 | 0.965 | 0.71 |
| NC1(C(=O)N[C@@H](CCO)c2ccc(Cl)cc2)CCN(c2ncnc3[nH]ccc23)CC1 [Capivasertib] + COc1nnc2ccc(N3CCC(c4ccc(OCCN5CCN(C)C(=O)[C@H]5C)cc4)CC3)nn12 [AZD5153] (first compound max 10 µM, 7x7, partner max 1 µM) | 0.226 | 0.527 | 0.208 | 0.413 | 0.523 | 1 | 0.201 | 0.669 | 1 | 0.941 | 0.884 | 0.579 | 0.985 | 0.38 | 0.301 | 0.406 | 0.699 | 0.513 | 0.979 | 0.669 |
| CC1(C)CCC(CN2CCN(c3ccc(C(=O)NS(=O)(=O)c4ccc(NCC5CCOCC5)c([N+](=O)[O-])c4)c(Oc4cnc5[nH]ccc5c4)c3)CC2)=C(c2ccc(Cl)cc2)C1 [Venetoclax] + COc1cc(Nc2ncc3c(n2)-c2ccc(Cl)cc2C(c2c(F)cccc2OC)=NC3)ccc1C(=O)O [Alisertib] (first compound max 1 µM, 7x7, partner max 10 µM) | 0.534 | 0.665 | 0.415 | 0.273 | 0.667 | 1 | 0.681 | 0.949 | 0.976 | 0.53 | 0.767 | 0.666 | 1 | 0.751 | 0.211 | 0.403 | 1 | 0.318 | 0.713 | 0.385 |
| C[C@@H]1COCCN1c1cc(C2([S@](C)(=N)=O)CC2)nc(-c2ccnc3[nH]ccc23)n1 [AZD6738] + O=C(c1cc(Cc2n[nH]c(=O)c3ccccc23)ccc1F)N1CCN(C(=O)C2CC2)CC1 [Olaparib] (first compound max 10 µM, 7x7, partner max 10 µM) | 0.181 | 0.59 | 0.471 | 0.228 | 0.734 | 0.988 | 0.341 | 0.736 | 0.916 | 0.752 | 0.721 | 0.701 | 1 | 0.584 | 0.214 | 0.452 | 0.965 | 0.576 | 0.672 | 0.666 |
| CCc1c2c(nc3ccc(O)cc13)-c1cc3c(c(=O)n1C2)COC(=O)[C@]3(O)CC [SN-38] + O=C(c1cc(Cc2n[nH]c(=O)c3ccccc23)ccc1F)N1CCN(C(=O)C2CC2)CC1 [Olaparib] (first compound max 0.3 µM, 7x7, partner max 10 µM) |  | 1 | 0.419 | 0.766 |  | 0.999 | 0.252 | 0.96 | 1 | 0.915 | 0.799 | 0.518 | 1 | 0.367 | 0.28 | 0.634 | 1 | 0.652 | 0.943 | 0.544 |
| COc1nnc2ccc(N3CCC(c4ccc(OCCN5CCN(C)C(=O)[C@H]5C)cc4)CC3)nn12 [AZD5153] + CN(CC[C@H](CSC1=CC=CC=C1)NC2=C(C=C(C=C2)S(=O)(=O)NC(=O)C3=CC=C(C=C3)N4CCC(CC4)[C@H](C5=CC=CC=C5C6=CC=C(C=C6)Cl)O)S(=O)(=O)C(F)(F)F)CCO [AZD4320] (first compound max 1 µM, 7x7, partner max 1 µM) | 0.369 | 0.251 |  | 0.34 | 1 |  |  |  | 0.933 |  | 0.746 |  | 1 |  |  | 0.909 | 0.49 |  |  |  |
| CN(C)CCCOc1ccc(-c2ccc3ncc4c(c3c2)n(C2CCOCC2)c(=O)n4C)cn1 [AZD0156] + O=C(c1cc(Cc2n[nH]c(=O)c3ccccc23)ccc1F)N1CCN(C(=O)C2CC2)CC1 [Olaparib] (first compound max 3 µM, partner max 3 µM) | 0.183 | 0.585 | 0.16 | 0.155 |  | 0.67 | 0.195 | 0.476 | 0.303 | 0.387 | 0.433 | 0.148 | 0.97 | 0.171 | 0.139 | 0.209 | 0.649 | 0.256 | 0.551 | 0.335 |
| C=CCn1c(=O)c2cnc(Nc3ccc(N4CCN(C)CC4)cc3)nc2n1-c1cccc(C(C)(C)O)n1 [AZD1775] + C1CN(CCC1(C(=O)N[C@@H](CCO)C2=CC=C(C=C2)Cl)N)C3=NC=NC4=C3C=CN4 [Capivasertib] (first compound max 3 µM, partner max 3 µM) | 0.399 | 0.858 | 0.584 | 0.555 |  | 0.988 | 0.476 | 0.893 | 0.983 | 0.789 | 0.896 | 0.628 | 1 | 0.795 | 0.281 | 0.482 | 0.98 | 0.35 | 0.909 | 0.793 |
| Cc1c2c(nn1C)CSCc1cc(n(C)n1)CSc1cc(c3ccccc3c1)OCCCc1c(C(=O)O)n(C)c3c-2c(Cl)ccc13 [AZD5991] + Cc1cc2ncnn2cc1Nc1ncc2c(n1)n(C1CCOCC1)c(=O)n2C [AZD7648] (first compound max 1 µM, 7x7, partner max 10 µM) |  | 0.515 | 0.218 | 0.196 | 0.998 | 0.967 | 0.178 | 0.995 | 0.29 | 0.67 | 0.988 | 0.414 | 1 | 0.945 | 0.291 | 0.237 | 0.605 | 0.348 | 0.939 | 0.34 |
| CC(=O)c1c(C)c2cnc(Nc3ccc(N4CCNCC4)cn3)nc2n(C2CCCC2)c1=O [Palbociclib] + CN(CC[C@H](CSC1=CC=CC=C1)NC2=C(C=C(C=C2)S(=O)(=O)NC(=O)C3=CC=C(C=C3)N4CCC(CC4)[C@H](C5=CC=CC=C5C6=CC=C(C=C6)Cl)O)S(=O)(=O)C(F)(F)F)CCO [AZD4320] (first compound max 10 µM, 7x7, partner max 1 µM) | 0.395 | 0.476 |  | 0.293 | 0.941 |  |  |  | 0.94 |  | 0.306 |  | 1 |  |  | 0.976 | 0.684 |  |  |  |
| C[C@@H](c1ccc2nccn2c1)n1nnc2ncc(-c3cnn(C)c3)nc21 [Savolitinib] + CN(CC[C@H](CSC1=CC=CC=C1)NC2=C(C=C(C=C2)S(=O)(=O)NC(=O)C3=CC=C(C=C3)N4CCC(CC4)[C@H](C5=CC=CC=C5C6=CC=C(C=C6)Cl)O)S(=O)(=O)C(F)(F)F)CCO [AZD4320] (first compound max 1 µM, 7x7, partner max 1 µM) | 0.393 | 0.287 |  | 0.246 | 0.622 |  |  |  | 0.455 |  | 0.185 |  | 1 |  |  | 0.409 | 0.488 |  |  |  |
